# How the values were obtained:
# Format in all cases: in vivo, Arabidopsis thaliana
# [1] = tested on: WT, cdk8-1, jazD and jazD cdk8-1 seedlings; experiment: Root length on medium with 5-methyl-tryptophan; conditions: 0 or 15 μM 5-MT, 10-day-old, partially dependent on CDK8
# Excerpt: FIG. 13A is a schematic of tryptophan biosynthesis from chorismate. Tryptophan feedback inhibits the activity of anthranilate synthase (AS). Although 5-methyl-tryptophan (5-MT) inhibits anthranilate synthase activity, it cannot be used for the production of proteins. The abbreviations used in FIG. 13A are: TRP, anthranilate phosphoribosyltransferase: PAI, phosphoribosylanthranilate isomerase; IGPS, indole-3-glycerol-phosphate synthase; TSA, tryptophan synthase alpha subunit: TSB, tryptophan synthase beta subunit. FIG. 13B graphically illustrates root length of WT, cdk8-1, jazD, and jazD cdk8-1 10-day-old seedlings grown on medium supplemented with 0 or 15 μM of 5-methyl-tryptophan (5-MT). Data shown are the mean±SD of at least 24 seedlings per genotype at each 5-MT concentration. Letters denote significant differences according to Tukey's HSD test (P<0.05).
# FIG. 13B graphically illustrates root length of WT, cdk8-1, jazD, and jazD cdk8-1 10-day-old seedlings grown on medium supplemented with 0 or 15 μM of 5-methyl-tryptophan (5-MT). The data shown in FIG. 13B are the mean±SD of at least 24 seedlings per genotype at each 5-MT concentration, while the letters denote significant differences according to Tukey's HSD test (P<0.05).
# [2] = tested on: WT, jazQ and jazD seedlings; experiment: Apical hook formation in ethylene-elicited (ACC-treated) seedlings; conditions: jazD and jazQ seedlings compared with WT
# Excerpt: FIGS. 3A-3F illustrates that jazD plants are highly resistant to insect herbivores and necrotrophic pathogens. […] Data shown are the mean±SD of at least 30 larvae per genotype. Capital letters denote significant differences according to Tukey's HSD test (P<0.05). FIG. 3C is a heat map displaying the expression level of various jasmonate/ethylene-responsive genes in leaves of jazQ and jazD normalized to wild type. ACT, agmatine coumaroyl transferase (accession no. At5g61160). […] FIG. 3E graphically illustrates disease lesion size on leaves of the indicated genotypes following 5 days of treatment with B. cinerea spores for the indicated plant lines. […] Capital letters denote significant differences (Tukey's HSD test, P<0.05). FIG. 3F graphically illustrates apical hook angles of seedlings grown in the presence of various concentrations of the ethylene precursor 1-aminocyclopropane-1-carboxylic acid (ACC). Data shown are the mean±SD of at least 21 seedlings per genotype. […]
# In agreement with the RNA-seq data, jazQ plants were slightly more susceptible than wild type to the necrotrophic pathogen Botrytis cinerea, whereas jazD leaves were more resistant to the spread of disease lesions (FIG. […]). To determine whether jazQ and jazD differentially affect other ethylene responses, the inventors assessed apical hook formation in ethylene-elicited seedlings.
# [3] = tested on: wild type Col-0 (WT), jazQ, jazD and jazU seedlings; experiment: Root elongation assay with MeJA
# Protocol: Seeds were surface sterilized with 50% (v/v) bleach for three min, washed 10 times with sterile water and stratified in dark at 4° C. for two days. Seedlings were grown on 0.7% (w/v) agar media containing half-strength Linsmaier and Skoog (LS; Caisson Labs) salts supplemented with 0.8% (w/v) sucrose and the indicated concentration of MeJA (Sigma-Aldrich). Each square Petri plate (Fisher; 100×100×15 mm) contained five seedlings per genotype. Plates were incubated vertically in a growth chamber maintained at 21° C. for eight days under 16-hour-light (80 μE m^−2s^−1)/8-hour-dark conditions. The length of primary roots was measured using ImageJ software (see website at imagej.nih.gov/ij/).
# [4] = tested on: leaves of wild type, jazQ and jazD plants; experiment: Coronatine treatment of intact leaves; conditions: 50 μM coronatine
# Protocol: The eighth true leaf of 40-day-old plants grown under 12-hour-light/12-hour-dark conditions were spotted with 5 μL of sterile water (mock) or a solution containing 50 μM coronatine (Sigma-Aldrich, C8115) prepared in sterile water. Photographs were taken two and four days after treatment.
# [5] = tested on: WT, jazQ and jazD seedlings; experiment: Sucrose rescue assay (leaf biomass and root growth)
# Protocol: The effect of exogenous sucrose on leaf biomass and root growth was determined by growing seedlings on square Petri plates (Greiner Bio-One; 120×120×17 mm). In order to control for variation in seed quality, seeds were sieved after drying with desiccant for two weeks (see above). After sterilization and washing, seeds were sown without stratification on 0.7% (w/v) agar media containing half-strength LS salts supplemented with sucrose or sorbitol. Each plate contained ten (for biomass) or five (for root growth) seeds of Col-0 and mutant lines. Plates were placed in the dark at 4° C. for four days and then incubated horizontally (for leaf biomass) or vertically (for root growth) in growth chambers maintained at 21° C. under 16 h at a light intensity of 80 μE m^−2 s^−1 and 8-hour dark. ImageJ was used to measure root length after 11 days. Plant biomass and projected leaf area were measured after 16 days.
structure (smiles),measurement,setting,value
"Cc1ccc2[nH]cc(C[C@H](N)C(=O)O)c2c1 [5-MT, 5-methyl-tryptophan]",resistance to 5-MT (root length),[1],increased resistance
"NC1(C(=O)O)CC1 [ACC, 1-aminocyclopropane-1-carboxylic acid]",stimulation of hook curvature in response to ACC,[2],reduced in jazD but not jazQ seedlings
"CC/C=C\CC1C(=O)CCC1CC(=O)OC (stereo not shown) [MeJA, methyljasmonate]",sensitivity of jaz decuple mutant (jazD) to jasmonate,"[3]; jazD seedlings, 0, 5 or 25 μM MeJA, 8-day-old",highly sensitive
same,growth of roots in the presence of MeJA,"[3]; jazD seedlings, 5 μM MeJA",effectively arrested
same,root length in the presence of MeJA,"[3]; jazU seedlings versus jazD, very low concentrations (e.g., 1 μM) of MeJA",even shorter than jazD
CC[C@H]1C=C(C(=O)N[C@@]2(C(=O)O)C[C@@H]2CC)[C@H]2CCC(=O)[C@H]2C1 [coronatine],sensitivity of jazD leaves to coronatine,"[4]; jazD leaves, 2 or 4 days",hypersensitive
same,leaf response after COR application,"[4]; jazD leaves, 4 days after treatment",near complete loss of chlorophyll and spreading of necrosis-like symptoms throughout the leaf
same,leaf response at the site of COR application,"[4]; jazD leaves, within 2 days of treatment",visible chlorosis
same,chlorosis after COR application,"[4]; wild type and jazQ leaves, within 4 days",no apparent signs of chlorosis
same,leaf response at the site of COR application,"[4]; wild type and jazQ leaves, within 4 days of treatment",visible accumulation of anthocyanin pigments
OC[C@H]1O[C@@](CO)(O[C@H]2O[C@H](CO)[C@@H](O)[C@H](O)[C@H]2O)[C@@H](O)[C@@H]1O [sucrose],effect of exogenous sucrose on biomass,"[5]; all genotypes tested (WT, jazQ, jazD), 16-day-old seedlings on agar medium",promotes increased biomass
same,effect of exogenous sucrose on root growth,"[5]; jazD in comparison with wild type and jazQ, 11-day-old seedlings, 23 mM sucrose",enhanced the root growth of jazD
same,stimulatory effect of sucrose on growth of shoots,[5]; jazD shoots compared with wild type and jazQ,statistically greater than that of wild type and jazQ
